In brackets after ≈: the same amount, converted by molar mass.
What was measured:
CCR2 mRNA = assay: Inhibition of CCR2 mRNA level in MDSCs; format: cell-based; conditions: Mus musculus, 2 h, read-out: Suppression Rate (inhibition of CCR2 mRNA levels)
Procedure: Under sterile conditions, the tibia was removed, both ends of the bone were cut, and bone marrow was repeatedly flushed into a 15 mL centrifuge tube using a 1 mL syringe filled with culture medium. Centrifuge at 1600 rpm for 5 min to collect bone marrow cells. […] Count cells and adjust density to 1×10^6 cells/mL in complete medium. Seed cells uniformly into 6-well plates at 2 mL per well. […] After incubation, collect cells into centrifuge tubes, centrifuge at 1600 rpm for 5 min, wash once with 1×PBS, and add 500 μL RNA extraction reagent to each tube. After centrifugation to obtain the pellet, add 20 μL DEPC-treated water to each tube to dissolve the pellet. Determine RNA concentration and reverse transcribe to cDNA. Add the cDNA, primers, and […] to a 96-well plate. Centrifuge at 4000 rpm for 5 min, then place in a PCR instrument for detection.

MDSCs [1] = assay: Inhibition of MDSC chemotaxis (Transwell, tumor-conditioned medium); format: cell-based, mouse; set-up: inhibition of MDSC chemotaxis compared to Arg: dose or concentration left out as unconfirmed; conditions: for inhibition at 1 µM / inhibition at 10 µM: Mus musculus, read-out: Suppression Rate (MDSC chemotaxis); for inhibition of MDSC chemotaxis compared to Arg: result in words
Procedure: Hepa1-6 mouse hepatocellular carcinoma cells were uniformly seeded into 6-well plates. After cells reached confluence, supernatant was aspirated, and 1-1.5 mL fresh medium was added to each well. Following 24 h culture, supernatant was collected, centrifuged at 1600 rpm for 5 min, aspirated, and filtered through a 0.22 μm membrane to obtain tumor-conditioned medium for subsequent use. […] Under sterile conditions, remove the tibia, cut both ends of the bone, and aspirate the bone marrow into a 1 mL syringe. Repeat flushing into a 15 mL centrifuge tube. Centrifuge at 1600 rpm for 5 min to collect bone marrow cells. Wash twice with 1×PBS. […] Count cells, adjust density to 1×10^6 cells/mL, and uniformly seed into 24-well plates at 300 μL per well. […] Centrifuge at 1600 rpm for 5 min, remove supernatant, resuspend cells in 300 μL fresh medium, and place into Transwell chambers. […] Co-culture for 24 h.

[2] = Water solubility testing of compounds (HPLC); conditions: deionized water, 37 °C
T cells / MDSCs = assay: Promotion of T cell proliferation in a co-culture model of MDSCs and T cells; format: cell-based, mouse; conditions: for T cell proliferation in MDSC-T cell co-culture: result in words; for activation at 1 µM: Mus musculus, T-cell, 12 h, read-out: T-cell proliferation rate (%), 1 μM, MDSCs treated 12 hours, co-culture of MDSCs and T cells, compared to the control group
Outline: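 Bone-marrow MDSCs, after compound treatment, were co-cultured 48 h at 1:1 with CFDA-SE-labelled (10 μM solution), activated splenic T cells. Proliferation of CD3+ T cells was read by flow cytometry.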

4T1 cells = assay: Antitumor effect in 4T1 mouse mammary carcinoma xenograft model; format: in vivo, BALB/c mice; conditions: oral, 3 weeks
Procedure: 4T1 cells were cultured and expanded in vitro. […] A 100 μL aliquot of this suspension was injected subcutaneously into the left forelimb axilla of female BALB/c mice. […] Daily oral administration was performed for 3 weeks. During the treatment period, mouse body weight and tumor diameter were measured daily. At the end of the experiment, mice were euthanized by cervical dislocation, and tumors were removed for weighing. Tumor volume (TV) was calculated using the formula: TV=½×a×b^2, where a represents the longest diameter of the tumor and b represents the shortest diameter.

T cells = assay: Proportion of T cells in tumor and spleen of H22 xenograft mice (flow cytometry); format: in vivo, BALB/c mice
Procedure: Once all tumors were dissected, nail-sized tumor pieces were transferred to 1.5 mL Eppendorf tubes and minced with scissors. Transfer the minced tumor tissue suspension to a 15 mL centrifuge tube containing 3-5 mL of digestive enzymes (Collagenase IV 1 mg/mL, Hyaluronidase 1 mg/mL, DNase 120 U/mL). Incubate at 37° C. on a shaking incubator at 200 rpm for 1 hour. After digestion, pass the mixture through a 200-mesh sieve to obtain the tumor cell suspension. Centrifuge the resulting tumor suspension at 1600 rpm for 5 min, aspirate the supernatant, resuspend cells in 1 mL of 1×PBS per tube. Transfer the cell suspension to a 1.5 mL Eppendorf tube, centrifuge at 1600 rpm for 5 min, remove the supernatant, resuspend cells in 100 μL of 1×PBS per tube, add 1 μL of dead/live dye to each tube, mix thoroughly, and incubate at room temperature in the dark for 15 min. […] Position the spleen on a 200-mesh cell strainer. Gently press the spleen using a 10 mL syringe needle. […] Transfer the splenocyte suspension into a 15 mL centrifuge tube. Centrifuge at 1600 rpm for 5 min to collect cells. Wash once with 1×PBS. Add 3 mL red blood cell lysis buffer (diluted with ddH2O) to each tube and incubate for 5 min. After lysis, add 10 mL 1×PBS to each tube to terminate lysis. Centrifuge at 1600 rpm for 5 min. Add 1 mL 1×PBS to each 15 mL centrifuge tube, transfer to 1.5 mL EP tubes, and centrifuge at 1600 rpm for 5 min. Add 1×PBS to each tube containing stained tumor cells and lysed spleen cells for one wash, centrifuge at 1600 rpm for 5 min, and remove the supernatant. Resuspend tumor cells and spleen cells separately in 100 μL 1×PBS. Add 1 μL FcX™ antibody to each tube and incubate at room temperature in the dark for 10 min. After incubation, sequentially add 1 μL each of CD45, CD3, and CD8 antibodies to each tube. Incubate at 4° C. in the dark for 30 min. After staining, wash once with 1 mL PBS. Centrifuge at 1600 rpm for 5 min. Discard the supernatant. Resuspend cells in 300 μL 1×PBS. Filter the cell suspension into a flow cytometry tube and proceed to instrument analysis.

MDSCs [3] = assay: Proportion of MDSCs in tumor and spleen of H22 xenograft mice (flow cytometry); format: in vivo, BALB/c mice
Procedure: Once all tumors were dissected, nail-sized tumor pieces were transferred to 1.5 mL Eppendorf tubes and minced with scissors. Transfer the minced tumor tissue suspension to a 15 mL centrifuge tube containing 3-5 mL of digestive enzymes (Collagenase IV 1 mg/mL, Hyaluronidase 1 mg/mL, DNase 120 U/mL). Incubate at 200 rpm and 37° C. for 1 hour. After digestion, pass the mixture through a 200-mesh sieve to obtain the tumor cell suspension. Centrifuge the resulting tumor suspension at 1600 rpm for 5 min, aspirate the supernatant, resuspend cells in 1 mL of 1×PBS per tube. Transfer the cell suspension to a 1.5 mL Eppendorf tube, centrifuge at 1600 rpm for 5 min, remove the supernatant, resuspend cells in 100 μL of 1×PBS per tube, add 1 μL of dead/live dye to each tube, mix thoroughly, and incubate at room temperature in the dark for 15 min. […] Position the spleen on a 200-mesh cell strainer. Gently press the spleen using a 10 mL syringe needle. […] Transfer the washed splenocyte suspension into a 15 mL centrifuge tube. Centrifuge at 1600 rpm for 5 min to collect cells. Wash once with 1×PBS. Add 3 mL red blood cell lysis buffer (diluted with ddH2O) to each tube and incubate for 5 min. After lysis, add 10 mL 1×PBS to each tube to terminate lysis. Centrifuge at 1600 rpm for 5 min. Add 1 mL 1×PBS to each 15 mL centrifuge tube, transfer to 1.5 mL EP tubes, and centrifuge at 1600 rpm for 5 min. Add 1 mL 1×PBS to each tube containing stained tumor cells and lysed spleen cells for one wash, centrifuge at 1600 rpm for 5 min, and remove the supernatant. Resuspend tumor cells and spleen cells separately in 100 μL 1×PBS. Add 1 μL FcX™ antibody to each tube and incubate at room temperature in the dark for 10 min. After incubation, sequentially add 1 μL each of CD45, CD11b, Gr1 antibodies. Incubate at 4° C. in the dark for 30 min. After incubation, wash once with 1×PBS, discard the supernatant, resuspend cells in 300 μL 1×PBS, filter the membrane into a flow cytometry tube, and proceed to instrument analysis.

Hepa1-6 cells = assay: Antitumor effect in Hepa1-6 mouse hepatocellular carcinoma subcutaneous xenograft model; format: in vivo, C57BL/6 mice; conditions: 40 μmol/kg/d oral, 2 weeks
H22 cells = assay: Antitumor effect in H22 mouse hepatocellular carcinoma subcutaneous xenograft model; format: in vivo, BALB/c mice; conditions: oral, 2 weeks
[4] = system: fibrosis-related factors (Acta2, Col1a1, Tgfb1) in liver tissue; assay: CCl4-induced acute liver injury, liver fibrosis-related factor mRNA; format: in vivo, C57BL/6 mice; set-up: unit not given here; conditions: 200 mg/kg
Procedure: (§1) They were acclimated for 7 days before use in experiments.
(§2) Mice were randomly assigned to groups. One group was arbitrarily designated as the normal group, while the remaining groups served as model group, Compound 1 group, Hydrochloride 20 group, Fumarate 21 group, and Silibinin group, with 6 mice per group. Except for the normal group receiving 10 mL olive oil/kg via injection, all other mice received 0.5 mL CCl4+9.5 mL olive oil/kg body weight via intraperitoneal injection, maintaining a CCl4 to olive oil ratio of 1:19. Starting from day 1 of modeling, Compound 1, Hydrochloride 20, and Fumarate 21 were administered orally for 3 consecutive days.
(§3) The blood was allowed to stand at room temperature for 2 hours, then centrifuged at 3000 rpm for 20 minutes. Serum was aspirated, aliquoted, and stored at −70° C. for future use. After blood collection, euthanize mice by cervical dislocation. Perform laparotomy to remove the liver. Rinse twice with pre-chilled PBS. Excise the left hepatic lobe tissue. […] Store remaining tissue at −70° C. for future use.
Q-PCR Analysis: Tissue total RNA extraction, cDNA synthesis, and PCR amplification methods are identical to Example 4. Additional primer information is as follows:
(§4) Data Statistics: All data are expressed as means f standard error of the mean (S.E.M.). Differences were analyzed for significance using analysis of variance (ANOVA). For groups showing significant differences in ANOVA, one-way ANOVA followed by Dunnett's test was performed to compare intergroup differences.

serum ALT and AST = assay: CCl4-induced acute liver injury, serum ALT and AST; format: in vivo, C57BL/6 mice; conditions: 200 mg/kg
Procedure: as §1, §2, §3
Serum AST and ALT Assay: Use 10 μL of each sample for testing. Determine mouse serum AST and ALT levels according to the operating manual. Measure absorbance at 510 nm using an enzyme-linked immunosorbent assay (ELISA) reader. Calculate sample concentration (U/L) based on the standard curve.
as §4

[5] = 40 μmol/kg/day, oral, 2 weeks, spleen, flow cytometry
[6] = 40 μmol/kg/day, oral, 2 weeks, tumor, flow cytometry
[7] = compared with solvent control, result in words

C=C1C(=O)O[C@H]2[C@H]1CCC(C)=C1CC[C@@](C)(OC(=O)N3CCCC3)[C@@H]12 [Compound 82]
inhibition at 1 µM (CCR2 mRNA): 28.5% | inhibition at 10 µM (CCR2 mRNA): 74.4% | inhibition at 1 µM (MDSCs [1]): 38.5% | inhibition at 10 µM (MDSCs [1]): 77.6% | inhibition of MDSC chemotaxis compared to Arg (MDSCs [1]): superior inhibition rates | solubility ([2]; water, Water-solubility): 0.148 mg/mL (≈ 428 µM) | T cell proliferation in MDSC-T cell co-culture (T cells / MDSCs; 1 μM): significantly enhanced T-cell proliferation | activation at 1 µM (T cells / MDSCs): > 40%

C=C1C(=O)O[C@H]2[C@H]1CCC(C)=C1CC[C@@](C)(OC(=O)N3CCCCC3)[C@@H]12 [Compound 83]
inhibition at 1 µM (CCR2 mRNA): 17% | inhibition at 10 µM (CCR2 mRNA): 70% | inhibition at 1 µM (MDSCs [1]): 29.4% | inhibition at 10 µM (MDSCs [1]): 75.9% | inhibition of MDSC chemotaxis compared to Arg (MDSCs [1]): superior inhibition rates | Water-solubility [2]: 0.152 mg/mL | T cell proliferation in MDSC-T cell co-culture (T cells / MDSCs; 1 μM): significantly enhanced T-cell proliferation | activation at 1 µM (T cells / MDSCs): > 40%

C=C1C(=O)O[C@H]2[C@H]1CCC(C)=C1CC[C@@](C)(OC(=O)NCCN3CCOCC3)[C@@H]12 [Compound 99]
Tumor inhibition rate (%) (4T1 cells; 40 μmol/kg/day, 4T1): 20.94% | Tumor weight (4T1 cells; 40 μmol/kg/day, 4T1): 1.43 ± 0.19 g | antitumor effect, 4T1 (4T1 cells; result in words): no significant antitumor effects | Water-solubility [2]: 220.8 mg/mL | Spleen T cells (%) (T cells; [5]): 31.71 ± 2.95 % | Tumor T cells (%) (T cells; [6]): 22.81 ± 5.33 % | proportion of T cells in tumor tissues and spleens (T cells; [7]): significantly increased | T-cell proliferation rate (%) (T cells / MDSCs; 1 μM, MDSCs treated 12 hours, co-culture of MDSCs and T cells, compared to the control group): + (T-cell proliferation rate within the 0-20% range compared to the control group) | Spleen MDSCs (%) (MDSCs [3]; [5]): 30.90 ± 10.21 % | Tumor-associated MDSCs (%) (MDSCs [3]; [6]): 34.85 ± 7.99 % | proportion of MDSCs in tumor tissues and spleens (MDSCs [3]; [7]): significantly reduced | Tumor Inhibition Rate (Hepa1-6 cells): 80.05% | Tumor weight (Hepa1-6 cells; solvent 0.92 ± 1.41): 0.18 ± 0.40 g | Tumor Suppression Rate (%) (H22 cells; 40 μmol/kg/day, H22 xenograft): 25.18% | Tumor weight (H22 cells; 40 μmol/kg/day, H22 xenograft): 6.40 ± 1.59 g | tumor-inhibiting effect, H22 (H22 cells; result in words): tumor-inhibiting effects

Silybin [reference compound]
Acta2 mRNA expression, liver [4]: 2.91 ± 0.48 | Col1a1 mRNA expression, liver [4]: 1.84 ± 0.17 | Tgfb1 mRNA expression, liver [4]: 1.11 ± 0.08 | ALT (serum ALT and AST): 121.58 ± 15.45 U/L | AST (serum ALT and AST): 301.45 ± 38.44 U/L

Source: patent US20260315434A1, “USE OF GUAIACOL SESQUITERPENE LACTONE DERIVATIVES” (NANJING UNIVERSITY OF CHINESE MEDICINE, priority 2023, published 2026)
